Assay: Standing test of aqueous solution for crystalline deposit
Type: physicochemical

SMILES | crystalline deposit on standing (aqueous 30% by mass solution, left standing at room temperature) | crystalline deposit on standing (aqueous 60% by mass solution, left standing at 0° C. for 10 days)
CN(C)CC(=O)[O-].[Na+] [N,N-dimethylglycine sodium salt] | crystalline N,N-dimethylglycine sodium salt deposited | 
CN(C)CC(=O)O [N,N-dimethylglycine] |  | no crystalline deposit was observed
